Experimental data as given in article PMC5435703 (Scientific Reports, 2017).
Values after ≈ are worked out from the molar mass of the structure shown. Like-named read-outs stand apart in the source and are kept apart here. Marks after values point to notes of the source that are not given here.

Experiments:
MRSA-1 = experiment: MIC broth microdilution assay; assay type: cell-based, Staphylococcus aureus; details: Staphylococcus aureus, MRSA; Table 1; read-out: MIC MRSA-1
MRSA BAA-1707 [1] = experiment: MIC broth microdilution assay; assay type: cell-based, Staphylococcus aureus; details: Staphylococcus aureus
MRSA BAA-44 = experiment: MIC broth microdilution assay; assay type: cell-based; details: Staphylococcus aureus; Table 1; read-out: MIC MRSA BAA-44
MRSE 35984 [2] = experiment: MIC broth microdilution assay; assay type: cell-based, Staphylococcus epidermidis; details: for MIC: Staphylococcus epidermidis, MRSE
S. epi 12228 = experiment: MIC broth microdilution assay; assay type: cell-based, Staphylococcus epidermidis; details: Staphylococcus epidermidis, 12228; Table 1; read-out: MIC S. epi 12228
VRE 700221 [3] = experiment: MIC broth microdilution assay; assay type: cell-based, Enterococcus faecium
MRSA BAA-1707 [4] = experiment: Calgary Biofilm Device (CBD) MBC/MBEC assay; assay type: cell-based, Staphylococcus aureus; details: CBD, 24 hours treatment; for MBC: Staphylococcus aureus, 24 h, planktonic killing, read-out: MRSA BAA-1707 MBC
VRE 700221 [5] = experiment: Calgary Biofilm Device (CBD) MBC/MBEC assay; assay type: cell-based, Enterococcus faecium; details: Enterococcus, VRE; CBD, planktonic killing; read-out: VRE 700221 MBC
MRSA-2 = experiment: MIC broth microdilution assay; assay type: cell-based, Staphylococcus aureus; details: Staphylococcus aureus, MRSA; Table 1; read-out: MIC MRSA-2
MRSA BAA-1707 [6] = experiment: MIC assay with metal(II) cation co-treatment; assay type: cell-based, Staphylococcus aureus; details: Staphylococcus aureus
[7] = LDH release assay for HeLa cytotoxicity; assay type: cell-based; details: human, HeLa cells; LDH release, 24 hours; tested at 25, 50 and 100 µM; read-out: HeLa Cytotox. IC50
MRSE 35984 [8] = experiment: Calgary Biofilm Device (CBD) MBC/MBEC assay; assay type: cell-based, Staphylococcus epidermidis; details: Staphylococcus epidermidis, MRSE; CBD, planktonic killing; read-out: MRSE 35984 MBC
[9] = Hemolysis assay with red blood cells; details: human, pH 7.2
MtB H37Ra = experiment: MIC assay for Mycobacterium tuberculosis; assay type: cell-based; details: 168 h, seven days
[10] = Table 1, three independent experiments, read-out: MIC MRSA BAA-1707
[11] = Table 3, read-out: MRSA BAA-1707 MIC
[12] = Table 1, read-out: MIC MRSE 35984
[13] = Enterococcus, VRE, Table 1, read-out: MIC VRE 700221
[14] = Enterococcus, VRE, Table 3, read-out: VRE 700221 MIC
[15] = single plate shown as picture, read-out: MIC (µM), MIC Assay against MRSA BAA-1707

Work on `Oc1c(Br)cc(Br)c2nc3ccc(Oc4ccccc4)cc3nc12` [HP 16] yielded an MIC (MRSA-1) of 25 µM (≈ 11.2 µg/mL).

`CCCCCCCCCC(=O)N[C@@H](Cc1c[nH]c2ccccc12)C(=O)N[C@H](CC(N)=O)C(=O)N[C@@H](CC(=O)O)C(=O)N[C@@H]1C(=O)NCC(=O)N[C@@H](CCCN)C(=O)N[C@@H](CC(=O)O)C(=O)N[C@H](C)C(=O)N[C@@H](CC(=O)O)C(=O)NCC(=O)N[C@H](CO)C(=O)N[C@@H]([C@H](C)CC(=O)O)C(=O)N[C@@H](CC(=O)c2ccccc2N)C(=O)O[C@@H]1C` [daptomycin, reference compound] showed an MIC (MRSA BAA-1707 [1]; [10]) of 3.13 µM (≈ 5.07 µg/mL), an MIC (MRSA BAA-1707 [1]; [11]) of 3.13 µM (≈ 5.07 µg/mL) and an MIC (MRSA BAA-44) of 18.8 µM (≈ 30.5 µg/mL). The MIC (MRSE 35984 [2]; [12]) was 12.5 µM (≈ 20.3 µg/mL), the MIC (MRSE 35984 [2]; Table 3, read-out: MRSE 35984 MIC) was 12.5 µM (≈ 20.3 µg/mL) and the MIC (S. epi 12228) was 6.25 µM (≈ 10.1 µg/mL). The MIC (VRE 700221 [3]; [13]) was 125 µM (≈ 203 µg/mL), the MIC (VRE 700221 [3]; [14]) was 125 µM (≈ 203 µg/mL) and the “MRSA BAA-1707 MBEC” value (MRSA BAA-1707 [4]; biofilm eradication) was > 2000 µM. It also gave an MBC (MRSA BAA-1707 [4]) of 125 µM (≈ 203 µg/mL) and an MBC (VRE 700221 [5]) of 375 µM (≈ 608 µg/mL).

Work on `CCCCc1cc(Br)c(O)c2nc3ccccc3nc12` [HP 2] yielded an MIC (MRSA BAA-1707 [1]; [10]) of 0.78 µM (≈ 0.258 µg/mL), an MIC (MRSA BAA-1707 [1]; [15]) of 0.78 µM (≈ 0.258 µg/mL) and an MIC (MRSA-1) of 0.78 µM (≈ 0.258 µg/mL). For the same compound, the MIC (MRSA-2) was 3.13 µM (≈ 1.04 µg/mL) and the MIC (VRE 700221 [3]; [13]) was 0.78 µM (≈ 0.258 µg/mL).

`C[C@H]1c2cccc(O)c2C(=O)C2=C(O)[C@]3(O)C(=O)C(C(N)=O)=C(O)[C@@H](N(C)C)[C@@H]3[C@@H](O)[C@@H]21` [Doxy., Doxycycline, reference compound] gave an MIC (MRSA BAA-1707 [6]; Table 2, MRSA BAA-1707, no metal(II) cation added, read-out: MIC) of 0.78 µM, an MIC (MRSA BAA-1707 [6]; copper(II) at 200 µM co-treatment, read-out: MIC w/Cu2+) of 0.78 µM and an MIC (MRSA BAA-1707 [6]; iron(II) at 200 µM co-treatment, read-out: MIC w/Fe2+) of 3.13 µM. It also gave an MIC (MRSA BAA-1707 [6]; magnesium(II) at 200 µM co-treatment, read-out: MIC w/Mg2+) of 0.78 µM and an MIC (MRSA BAA-1707 [6]; zinc(II) at 200 µM co-treatment, read-out: MIC w/Zn2+) of 0.39 µM.

In the case of `Cc1cc(Br)c(O)c2nc3cc(Cl)ccc3nc12` [HP 12], the MIC (MRSA-1) is reported as 75 µM (≈ 24.3 µg/mL) and the MIC (VRE 700221 [3]; [13]) is reported as 12.5 µM (≈ 4.04 µg/mL).

With `Cc1cc(Br)c(O)c2nc3ccccc3nc12` [HP 4] the MIC (MRSA BAA-1707 [1]; [10]) was 3.13 µM (≈ 0.905 µg/mL), the MIC (MRSA BAA-1707 [1]; [11]) was 3.13 µM (≈ 0.905 µg/mL) and the MIC (MRSA BAA-1707 [1]; [15]) was 3.13 µM (≈ 0.905 µg/mL). The MIC (MRSA BAA-44) was 50 µM (≈ 14.5 µg/mL), the MIC (MRSA-1) was 50 µM (≈ 14.5 µg/mL) and the MIC (MRSA-2) was 3.13 µM (≈ 0.905 µg/mL). It also gave an MIC (S. epi 12228) of 3.13 µM (≈ 0.905 µg/mL), an MIC (VRE 700221 [3]; [13]) of 3.13 µM (≈ 0.905 µg/mL) and an MIC (VRE 700221 [3]; [14]) of 3.13 µM (≈ 0.905 µg/mL). For the same compound, the IC50 at 24 h [7] was > 100 µM, the MBC (MRSA BAA-1707 [4]) was 46.9 µM (≈ 13.6 µg/mL) and the MBC (MRSE 35984 [8]) was 150 µM (≈ 43.4 µg/mL). For the same compound, the hemolysis at 1 h, 200 µM [9] was ≤ 1%.

`Cc1cc(Cl)c2nc3c(C)cc(Br)c(O)c3nc2c1` [HP 9] gave an MIC (MRSA BAA-44) of 1.56 µM (≈ 0.527 µg/mL), an MIC (MRSA-1) of 1.56 µM (≈ 0.527 µg/mL) and an MIC (MRSA-2) of 2.35 µM (≈ 0.793 µg/mL). For the same compound, the MIC (MtB H37Ra) was 50 µM (≈ 16.9 µg/mL), the IC50 at 24 h [7] was > 100 µM and the MBC (MRSA BAA-1707 [4]) was > 200 µM. The MBC (MRSE 35984 [8]) was 12.5 µM (≈ 4.22 µg/mL), the MBC (VRE 700221 [5]) was 12.5 µM (≈ 4.22 µg/mL) and the hemolysis at 1 h, 200 µM [9] was ≤ 1%.

With `CCc1cccc2nc3c(O)c(Br)cc(C)c3nc12` [HP 6] the MIC (MRSA-1) was 0.78 µM (≈ 0.247 µg/mL), the MIC (MRSE 35984 [2]; [12]) was 0.3 to 0.78 µM (≈ 0.0952 to 0.247 µg/mL) and the “MIC MRSE 35984” value (MRSE 35984 [2]; Table 1) was 0.30^a µM. The MIC (VRE 700221 [3]; [13]) was 0.78 to 2.35 µM (≈ 0.247 to 0.745 µg/mL) and the MIC (VRE 700221 [3]; Table 1, read-out: MIC VRE 700221) was 0.78 µM (≈ 0.247 µg/mL).

`CCc1cc(Br)c2nc3c(C)cc(Br)c(O)c3nc2c1` [HP 10] showed an MIC (MRSA-1) of 50 µM (≈ 19.8 µg/mL), an MIC (MRSE 35984 [2]; [12]) of 37.5 µM (≈ 14.9 µg/mL) and an MIC (VRE 700221 [3]; [13]) of 50 µM (≈ 19.8 µg/mL).

With `Oc1c(Br)cc(Br)c2nc3ccc(Br)cc3nc12` [HP 3] the MIC (MRSA BAA-1707 [1]; [10]) was 0.2 µM (≈ 0.0866 µg/mL), the MIC (MRSE 35984 [2]; [12]) was 3.13 µM (≈ 1.35 µg/mL) and the MIC (S. epi 12228) was 3.13 µM (≈ 1.35 µg/mL).

`Cc1cc(Br)c(O)c2nc3cccc(Cl)c3nc12` [HP 11] gave an MIC (MRSA BAA-44) of 3.13 µM (≈ 1.01 µg/mL), an MIC (MRSA-2) of 3.13 µM (≈ 1.01 µg/mL) and an MIC (MRSE 35984 [2]; [12]) of 1.56 µM (≈ 0.505 µg/mL). It also gave an MIC (S. epi 12228) of 1.56 µM (≈ 0.505 µg/mL) and an MIC (VRE 700221 [3]; [13]) of 3.13 µM (≈ 1.01 µg/mL).

In the case of `Cc1ccc2nc3c(O)c(Br)cc(C)c3nc2c1C` [HP 7], the MIC (MRSA-1) is reported as 50 µM (≈ 15.9 µg/mL).
